Tests used:
tankyrase 1 (TNKS1) = target: T1, tankyrase 1 (TNKS1) (Homo sapiens, UniProt O95271); assay: Tankyrase inhibitory activity test (ELISA, auto-poly(ADP-ribosyl)ation), tankyrase 1; format: biochemical; settings: Flag tagged tankyrase 1 (1,024-1,327aa, SAM+PARP); read-out: TNKS1 (inhibitory activity against tankyrase 1, IC50)
T1 construct: tankyrase 1 (1,024-1,327aa, SAM+PARP); made in house; host or cells: cell-free protein expression system
Procedure: (§1) The enzymatic activity of tankyrase 1 and the enzymatic activity of tankyrase 2 were measured by the ELISA method based on assessment of auto-poly(ADP-ribosyl)ation to evaluate the tankyrase inhibitory activity of the compound prepared in each of Examples (test compound) (inhibitory activity against tankyrase 1 (TNKS1) and inhibitory activity against tankyrase 2 (TNKS2)). First, Flag tagged tankyrase 1 (1,024-1,327aa, SAM+PARP) and tankyrase 2 (613-1,116aa, ANK5+SAM+PARP) were synthesized with a cell-free protein expression system, and diluted with a Tris buffer solution (50 mM Tris-HCl (pH 8.0), 150 mM NaCl, 10% glycerol). 50 μL of the diluted tankyrase 1 or tankyrase 2 was added to a plate with an anti-FLAG M2 monoclonal antibody immobilized thereon (Anti-FLAG High-Sensitivity M2-Coated Plate) (Sigma-Aldrich), and the plate was left standing overnight at 4° C. Thereafter, the plate was washed four times with a PBS (PBST) buffer containing 0.1% Triton X-100. For Example 84, the Anti-FLAG High-Sensitivity M2-Coated Plate was replaced by an immunoplate (Thermo Fisher Scientific), tankyrase 1 or tankyrase 2 was immobilized on the immunoplate, and the immunoplate was then blocked with Blocking One (nacalai tesque), then washed with a PBS (PBST) buffer, and used as the following plate.
(§2) Subsequently, the test compound diluted with an assay buffer (50 mM Tris-HCl (pH 8.0), 4 mM MgCl2, 0.2 mM DTT) (DMSO was used as a control) was added to each well of the plate, and the plate was left standing at room temperature for 10 minutes. Thereafter, a biotin-labeled NAD solution (225 μM NAD, 25 μM 6-Biotin-17-NAD (Travigen, Inc.)) was added and mixed as a donor substrate, and the mixture was reacted at 30° C. for 45 minutes. To blank wells was added distilled water instead of the biotin-labeled NAD solution. After the reaction, the plate was washed with a PBST buffer four times. Thereafter, HRP (horseradish peroxidase)-labeled streptavidin (Travigen, Inc.) was diluted with a PBS buffer by 1,000 times, and added to each well, and the mixture was reacted at room temperature for 20 minutes. The plate was washed with a PBST buffer four times, a chemiluminescent substrate solution TACS-Sapphire (Travigen, Inc.) was then added to each well, the mixture was reacted at room temperature for 20 minutes, and the chemiluminescence intensity was measured using a chemiluminescence measuring apparatus. For Example 84, the streptavidin was diluted by 5,000 times, the chemiluminescent substrate solution TACS-Sapphire was replaced by an ELISA POD substrate TMB solution easy (nacalai tesque), the mixture was reacted at room temperature for 30 minutes, and the chemiluminescence intensity was measured using a chemiluminescence measuring apparatus.
(§3) The residual enzymatic activity in the presence of the test compound was determined from the following expression. On the basis of the residual enzymatic activity at each of multiple concentrations of the test compound, the enzyme inhibitory activity was calculated in terms of a 50%-inhibition concentration (IC50 value) using data analysis software Origin (LightStone Corp.). Residual activity (%)={(chemiluminescence intensity with test compound added)−(chemiluminescence intensity of blank)}/{(chemiluminescence intensity of control)−(chemiluminescence intensity of blank)}

tankyrase 2 (TNKS2) = target: T2, tankyrase 2 (TNKS2) (Homo sapiens, UniProt Q9H2K2); assay: Tankyrase inhibitory activity test (ELISA, auto-poly(ADP-ribosyl)ation), tankyrase 2; format: biochemical; settings: Flag tagged tankyrase 2 (613-1,116aa, ANK5+SAM+PARP); read-out: TNKS2 (inhibitory activity against tankyrase 2, IC50)
T2 construct: tankyrase 2 (613-1,116aa, ANK5+SAM+PARP); made in house; host or cells: cell-free protein expression system
Procedure: as §1, §2, §3

[1] = system: human colorectal cancer cell line COLO-320DM; assay: Cell proliferation inhibitory activity test (Celltiter-Glo); format: cell-based; settings: COLO-320DM cells, 96 hours
Procedure: The cell proliferation inhibitory activity of the compound, which had been prepared in each of Examples, against the human colorectal cancer cell line COLO-320DM was evaluated by Celltiter-Glo Luminescent Cell Viability Assay (Promega Corporation; G7573). COLO-320DM cells were cultured in RPMI-1640 medium containing 2 mM glutamine (Wako Pure Chemical Industries, Ltd; 189-02025) supplemented with 10% fetal bovine serum. The cultured cells were washed with PBS, and then dissociated with trypsin/EDTA, and a cell solution with 3×10^4 cells/mL was prepared.
Subsequently, the cell solution was seeded in a 96-well microplate (Thermo/Nunc Company; 136101) in an amount of 70 μL per well, and cultured overnight under the condition of 37° C. and 5% CO2. Next day, a test compound solution obtained by diluting the test compound (DMSO solution) with a cell culture medium (final concentration of DMSO was 1%) was added in an amount of 10 μL per well, and the mixture was reacted under the condition of 37° C. and 5% CO2 for 96 hours (a 1% DMSO solution was used as a control). Thereafter, a Celltiter-GloLuminescent Cell Viability Assay reagent (Promega Corporation; G7573) was added in an amount of 80 μL per well, the mixture was stirred with a shaker for 2 minutes while light was blocked with an aluminum foil, and the mixture was incubated at room temperature for 10 minutes.
Thereafter, a luminescence signal was measured with a luminometer (Biotech Company; Synergy). The ratio of cell proliferation in each compound addition group to cell proliferation in a control group containing no test compound solution, where cell proliferation in the control group is 100%, was calculated and the value of a compound concentration necessary for suppressing the amount of residual cells to 50% of that in the control (GI50) was calculated as the cytostatic activity. […] An unevaluated test compound was designated as “NT”.

T1 sequence (O95271 1024-1327): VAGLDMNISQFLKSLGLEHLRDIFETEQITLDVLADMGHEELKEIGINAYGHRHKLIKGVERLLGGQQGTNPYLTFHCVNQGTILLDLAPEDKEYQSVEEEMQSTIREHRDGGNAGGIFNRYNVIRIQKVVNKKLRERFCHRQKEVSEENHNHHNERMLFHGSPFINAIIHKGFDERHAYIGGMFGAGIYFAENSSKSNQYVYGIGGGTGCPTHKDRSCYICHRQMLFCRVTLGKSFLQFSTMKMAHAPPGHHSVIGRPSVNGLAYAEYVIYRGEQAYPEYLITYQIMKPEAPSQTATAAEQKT

SMILES	IC50 (tankyrase 1 (TNKS1))	IC50 (tankyrase 2 (TNKS2))	GI50 [1]
CN1c2ccccc2C(=O)NC1c1c[nH]nc1-c1ccccc1 (stereo not drawn) [Example 10, 1-Methyl-2-(3-phenyl-1H-pyrazol-4-yl)-2,3-dihydroquinazolin-4-one]	5 to 20 nM	< 5 nM	≥ 10000 nM
CN1CCN(Cc2cccc(-c3ccc(-c4n[nH]cc4C4NC(=O)c5ccccc5N4C)cc3)c2)CC1 (stereo not drawn) [Example 26, 1-Methyl-2-[5-[4-[3-[(4-methylpiperazin-1-yl)methyl]phenyl]phenyl]-1H-pyrazol-4-yl]-2,3-dihydroquinazolin-4-one]	20 to 50 nM	5 to 20 nM	≥ 10000 nM
CN1c2ccccc2C(=O)NC1c1n[nH]nc1-c1ccc(-c2ccc(N3CCOCC3)cc2)cc1 (stereo not drawn) [Example 7, 1-Methyl-2-[4-[4-(4-morpholin-4-ylphenyl)phenyl]-2H-1,2,3-triazol-5-yl]-2,3-dihydroquinazolin-4-one]	20 to 50 nM	5 to 20 nM	≥ 10000 nM
CCOc1ccc(-c2n[nH]nc2C2NC(=O)c3cccc4c3N2CC4)cc1 (stereo not drawn) [Example 75, 11-[5-(4-Ethoxyphenyl)-2H-1,2,3-triazol-4-yl]-1,10-diazatricyclo[6.3.1.0^4,12]dodeca-4(12),5,7-trien-9-one]	5 to 20 nM	5 to 20 nM	1000 to 10000 nM
CN1c2ccccc2C(=O)NC1c1c[nH]nc1-c1ccc(NC(=O)c2ccccc2)cc1 (stereo not drawn) [Example 4, N-[4-[4-(1-Methyl-4-oxo-2,3-dihydroquinazolin-2-yl)-1H-pirazol-3-yl]phenyl]benzamide]	5 to 20 nM	< 5 nM	≥ 10000 nM
CCOc1ccc(-c2n[nH]cc2C2NC(=O)c3ccccc3N2C)cc1 (stereo not drawn) [Example 46, 2-[5-(4-Ethoxyphenyl)-1H-pyrazol-4-yl]-1-methyl-2,3-dihydroquinazolin-4-one]	< 5 nM	< 5 nM	1000 to 10000 nM
CN1c2ccccc2C(=O)NC1c1c[nH]nc1-c1ccc(N)cc1 (stereo not drawn) [Example 3, 2-[3-(4-Aminophenyl)-1H-pyrazol-4-yl]-1-methyl-2,3-dihydroquinazolin-4-one]	5 to 20 nM	5 to 20 nM	≥ 10000 nM
CN1c2ccccc2C(=O)NC1c1n[nH]nc1-c1ccc(Br)cc1 (stereo not drawn) [Example 60, 2-[4-(4-Bromophenyl)-2H-1,2,3-triazol-5-yl]-1-methyl-2,3-dihydroquinazolin-4-one]	5 to 20 nM	5 to 20 nM	1000 to 10000 nM
CN(C)c1ccc(-c2cccc(-c3n[nH]cc3C3NC(=O)c4ccccc4N3C)c2)cc1 (stereo not drawn) [Example 35, 2-[5-[3-[4-(Dimethylamino)phenyl]phenyl]-1H-pyrazol-4-yl]-1-methyl-2,3-dihydroquinazolin-4-one]	20 to 50 nM	20 to 50 nM	≥ 10000 nM
COc1ccc(-c2n[nH]cc2C2NC(=O)c3ccccc3N2)cc1 (stereo not drawn) [Example 82, 2-[5-(4-Methoxyphenyl)-1H-pyrazol-4-yl]-2,3-dihydro-1H-quinazolin-4-one]	5 to 20 nM	5 to 20 nM	≥ 10000 nM
CN1c2ccccc2C(=O)NC1c1c[nH]nc1-c1ccc(-c2ccnc3[nH]ccc23)cc1 (stereo not drawn) [Example 39, 1-Methyl-2-[3-[4-(1H-pyrrolo[2,3-b]pyridin-4-yl)phenyl]-1H-pyrazol-4-yl]-2,3-dihydroquinazolin-4-one]	20 to 50 nM	20 to 50 nM	≥ 10000 nM
CN1c2ccccc2C(=O)NC1c1c[nH]nc1-c1ccc(-c2ccc(N3CCNCC3)cc2)cc1 (stereo not drawn) [Example 41]	20 to 50 nM	5 to 20 nM	1000 to 10000 nM
COc1ccc(-c2n[nH]nc2C2NC(=O)c3ccccc3N2)cc1 (stereo not drawn) [Example 59, 2-[5-(4-Methoxyphenyl)-2H-1,2,3-triazol-4-yl]-2,3-dihydro-1H-quinazolin-4-one]	20 to 50 nM	< 5 nM	1000 to 10000 nM
CN1c2ccccc2C(=O)NC1c1c[nH]nc1-c1ccc([N+](=O)[O-])cc1 (stereo not drawn) [Example 16, 1-Methyl-2-[3-(4-nitrophenyl)-1H-pyrazol-4-yl]-2,3-dihydroquinazolin-4-one]	20 to 50 nM	20 to 50 nM	≥ 10000 nM
Cc1cccc2c1NC(c1c[nH]nc1-c1ccc(OCC(F)(F)F)cc1)NC2=O (stereo not drawn) [Example 54, 8-Methyl-2-[3-(4-(2,2,2-trifluoroethoxy)phenyl)-1H-pyrazol-4-yl]-2,3-dihydro-1H-quinazolin-4-one]	5 to 20 nM	< 5 nM	1000 to 10000 nM
CCOc1ccc(-c2n[nH]nc2C2NC(=O)c3cccc(CC)c3N2)cc1 (stereo not drawn) [Example 80, 2-[5-(4-Ethoxyphenyl)-2H-1,2,3-triazol-4-yl]-8-ethyl-2,3-dihydro-1H-quinazolin-4-one]	5 to 20 nM	5 to 20 nM	< 1000 nM
Cc1cccc2c1NC(c1n[nH]nc1-c1ccc(OCC(F)F)cc1)NC2=O (stereo not drawn) [Example 78, 2-[4-[4-(2,2-Difluoroethoxy)phenyl]-2H-1,2,3-triazol-5-yl]-8-methyl-2,3-dihydro-1H-quinazolin-4-one]	5 to 20 nM	< 5 nM	1000 to 10000 nM
COc1c(F)cc(-c2n[nH]cc2C2NC(=O)c3ccccc3N2C)cc1F (stereo not drawn) [Example 49, 2-[5-(3,5-Difluoro-4-methoxyphenyl)-1H-pyrazol-4-yl]-1-methyl-2,3-dihydroquinazolin-4-one]	20 to 50 nM	5 to 20 nM	≥ 10000 nM
COc1ccc(-c2n[nH]cc2C2NC(=O)c3cccc(C)c3N2)cc1F (stereo not drawn) [Example 56, 2-[5-(3-Fluoro-4-methoxyphenyl)-1H-pyrazol-4-yl]-8-methyl-2,3-dihydro-1H-quinazolin-4-one]	5 to 20 nM	5 to 20 nM	≥ 10000 nM
CN1c2ccccc2C(=O)NC1c1c[nH]nc1-c1cccc(NC(=O)Nc2ccccc2)c1 (stereo not drawn) [Example 5, 1-[3-[4-(1-Methyl-4-oxo-2,3-dihydroquinazolin-2-yl)-1H-pyrazol-3-yl]phenyl]-3-phenylurea]	5 to 20 nM	5 to 20 nM	≥ 10000 nM
CCc1cccc2c1NC(c1c[nH]nc1-c1ccc(OC)cc1)NC2=O (stereo not drawn) [Example 57, 8-Ethyl-2-[3-(4-methoxyphenyl)-1H-pyrazol-4-yl]-2,3-dihydro-1H-quinazolin-4-one]	5 to 20 nM	< 5 nM	1000 to 10000 nM

— US11566017B2, “Dihydroquinazolinone compound or pharmacologically acceptable salt, and cell growth inhibitor” (RIKEN, priority 2017, dated 2023)
